In patent US9642889B2, “Macrocyclic inhibitors of Flaviviridae viruses” (Selcia Limited, priority 2012, dated 2017):
Like-named read-outs stand apart in the source and are kept apart here.

Tests used:
[1] = target: cyclophilin A (Homo sapiens, UniProt P62937); assay: Cyclophilin A TR-FRET competitive binding assay; conditions: competition with CsA-Cy5 for His-tagged CypA, two-hour incubation
Method: Cyclophilin A TR-FRET Competitive Binding Assay
Inhibitor potency was measured using a competitive binding assay with a time-resolved fluorescence resonance energy transfer (TR-FRET) readout. […] An IC50 value was calculated using a four-parameter logistic fit.

[2] = tested on: Huh-7 HCV replicon cells (1b replicon); assay: anti-HCV activity in Huh-7 cell line harboring a HCV replicon (luciferase readout); assay type: cell-based; conditions: for EC50: inhibition of viral replication, Huh-7 HCV replicon cells, 3 days, read-out: EC50; for inhibition at 1 µM: Huh-7, read-out: Replicon 1b % inhibition at 1 μM, 1b replicon, 1 μM compound
[3] = rcm bond; 22-membered ring; Hoveyda-Grubbs II; 1,2-dichloroethane; 80.0 °C
[4] = rcm bond; 22-membered ring; Hoveyda-Grubbs II; 1,2-dichloroethane; 3.01 mM; 80.0 °C; 2 steps

Chain of cyclophilin A (P62937 whole entry, species assumed): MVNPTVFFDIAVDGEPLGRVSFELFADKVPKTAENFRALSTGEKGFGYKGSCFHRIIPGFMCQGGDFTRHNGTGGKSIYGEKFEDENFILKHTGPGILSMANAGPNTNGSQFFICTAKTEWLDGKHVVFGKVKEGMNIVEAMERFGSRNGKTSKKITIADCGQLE

Row | SMILES | IC50 [1] [nM] | EC50 ([2]; Hepatitis C virus, Huh-7, 72 h) [nM] | inhibition at 1 µM ([2]; Hepatitis C virus) [%] | also measured
1 | CCC[C@@H]1CC=Cc2cc3cc(ccc3cn2)[C@@H](C)NC(=O)[C@@H]2CCCN(N2)C(=O)[C@H](C)NC(=O)[C@H](C(C)C)OC1=O | – | – | – | ring closure, yield of all isomers (from C=CC[C@@H](CCC)C(=O)O[C@H](C(=O)N[C@@H](C)C(=O)N1CCC[C@@H](C(=O)N[C@H](C)c2ccc3cnc(C=C)cc3c2)N1)C(C)C, rcm bond, Hoveyda-Grubbs 2nd generation, toluene, 3.02 mM, 110.0 °C, 3.5 h): 6%
2 | CO[C@@H]1C=Cc2cc3cc(ccc3cn2)[C@@H](C)NC(=O)[C@@H]2CCCN(N2)C(=O)[C@H](C)NC(=O)[C@H](C(C)C)OC(=O)[C@@H]1C | – | – | – | ring closure, yield of all isomers (from C=Cc1cc2cc([C@@H](C)NC(=O)[C@@H]3CCCN(C(=O)[C@H](C)NC(=O)[C@@H](OC(=O)[C@H](C)[C@@H](/C=C/C)OC)C(C)C)N3)ccc2cn1, rcm bond, Hoveyda-Grubbs 2nd generation, toluene, 2.98 mM, 125.0 °C, 6.0 h): 1%
3 | CC(C)[C@@H]1NS(=O)(=O)CC=Cc2cc3cc(ccc3cn2)[C@@H](C)OC(=O)[C@@H]2CCCN(N2)C(=O)[C@H](C)NC1=O | – | – | – | ring closure, yield of all isomers (from C=CCS(=O)(=O)N[C@H](C(=O)N[C@@H](C)C(=O)N1CCC[C@@H](C(=O)O[C@H](C)c2ccc3cnc(C=C)cc3c2)N1)C(C)C, rcm bond, Hoveyda-Grubbs 2nd Generation Catalyst, toluene, 5.0 mM, 110.0 °C, 2.0 h): 13%
4 | CC(C)[C@H]1C(=O)N[C@@H](C)C(=O)N2CCC[C@H](N2)C(=O)N[C@H](C)c2cccc(c2)/C=C/CCCCC(=O)N1C [Compound 17, (E)-(2R,5S,11 S,14S)-14-Isopropyl-2,11,15-trimethyl-3,9,12,15,28-pentaaza-tricyclo[21.3.1.1*5,9*]octacosa-1 (27),21,23,25-tetraene-4,10,13,16-tetraone] | 101 to 1000 | 1100 to 10000 | 39 | ring closure, yield of all isomers (from C=CCCCCC(=O)N(C)[C@H](C(=O)N[C@@H](C)C(=O)N1CCC[C@@H](C(=O)N[C@H](C)c2cccc(C=C)c2)N1)C(C)C, rcm bond, Hoveyda-Grubbs 2nd generation catalyst, 1,2-dichloroethane, 3.33 mM, 80.0 °C, 3.0 h): 43%
5 | CO[C@H]1CC[C@@]2(/C=C/c3ccc4ccc(nc4c3)[C@@H](C)NC(=O)[C@@H]3CCCN(N3)C(=O)[C@H](C)NC(=O)[C@H](C(C)C)OC2=O)CC1 | – | – | – | ring closure, yield of all isomers (from CO[C@H]1CC[C@](/C=C/c2ccc3ccc([C@@H](C)N)nc3c2)(C(=O)O[C@H](C(=O)N[C@@H](C)C(=O)N2CCC[C@@H](C(=O)O)N2)C(C)C)CC1, amide bond, HATU/DIPEA, DCM, 4 steps): 6.2%
6 | CC(C)[C@@H]1OC(=O)CC=Cc2cc3cc(ccc3cn2)[C@@H](C)NC(=O)[C@@H]2CCCN(N2)C(=O)[C@H](C)NC1=O | – | – | – | ring closure, yield of all isomers (from C=CCC(=O)O[C@H](C(=O)N[C@@H](C)C(=O)N1CCC[C@@H](C(=O)N[C@H](C)c2ccc3cnc(C=C)cc3c2)N1)C(C)C, rcm bond, Hoveyda-Grubbs 2nd generation, toluene, 2.83 mM, 110.0 °C, 5.0 h): 1%
7 | CC(C)[C@@H]1OC(=O)C(C)(C)CC=Cc2cc3cc(ccc3cn2)[C@@H](C)NC(=O)[C@@H]2CCCN(N2)C(=O)[C@H](C)NC1=O | – | – | – | ring closure, yield of all isomers (from C=CCC(C)(C)C(=O)O[C@H](C(=O)N[C@@H](C)C(=O)N1CCC[C@@H](C(=O)N[C@H](C)c2ccc3cnc(C=C)cc3c2)N1)C(C)C, rcm bond, Hoveyda-Grubbs 2nd generation catalyst, toluene, 3.08 mM, 110.0 °C, 3.0 h): 15%
8 | CC(C)[C@@H]1OCCCC=Cc2cc3cc(ccc3cn2)[C@@H](C)OC(=O)[C@@H]2CCCN(N2)C(=O)[C@H](C)NC1=O | – | – | – | ring closure, yield of all isomers (from C=CCCCO[C@H](C(=O)N[C@@H](C)C(=O)N1CCC[C@@H](C(=O)O[C@H](C)c2ccc3cnc(C=C)cc3c2)N1)C(C)C, rcm bond, Hoveyda-Grubbs 2nd Generation Catalyst, toluene, 3.0 mM, 100.0 °C, 0.58 h): 35%
9 | CO[C@@H]1CCC=Cc2cccc(c2)[C@@H](C)NC(=O)[C@@H]2CCCN(N2)C(=O)[C@H](C)NC(=O)[C@H](C(C)C)OC(=O)[C@@H]1C | – | – | – | ring closure, yield of all isomers (from C=CCC[C@@H](OC)[C@@H](C)C(=O)O[C@H](C(=O)N[C@@H](C)C(=O)N1CCC[C@@H](C(=O)N[C@H](C)c2cccc(C=C)c2)N1)C(C)C, rcm bond, Hoveyda-Grubbs 2nd generation, 1,2-dichloroethane, 2.96 mM, 85.0 °C, 5.0 h): 32%
10 | CC(C)[C@@H]1OC(=O)[C@H](C)C=Cc2cc3cc(ccc3cn2)[C@@H](C)NC(=O)[C@@H]2CCCN(N2)C(=O)[C@H](C)NC1=O | – | – | – | ring closure, yield of all isomers (from C=Cc1cc2cc([C@@H](C)NC(=O)[C@@H]3CCCN(C(=O)[C@H](C)NC(=O)[C@@H](OC(=O)[C@H](C)/C=C/C)C(C)C)N3)ccc2cn1, rcm bond, Hoveyda-Grubbs 2nd generation, toluene, 2.99 mM, 125.0 °C, 5.75 h): 1%
11 | CC(C)[C@@H]1OC(=O)CCCC/C=C/c2cccc(c2)[C@@H](C)NC(=O)[C@@H]2CCCN(N2)C(=O)[C@H](C)NC1=O [Compound 8, (E)-(2R,5S,11S,14S)-14-Isopropyl-2,11-dimethyl-15-oxa-3,9,12,28-tetraaza-tricyclo[21.3.1.1*5,9*]octacosa-1 (27),21,23,25-tetraene-4,10,13,16-tetraone] | < 100 | < 1000 | 95 | ring closure, yield after HPLC [3]: 15%; ring closure, yield of all isomers (from C=CCCCCC(=O)O[C@H](C(=O)N[C@@H](C)C(=O)N1CCC[C@@H](C(=O)N[C@H](C)c2cccc(C=C)c2)N1)C(C)C, rcm bond, Hoveyda-Grubbs 2nd generation catalyst, 1,2-dichloroethane, 80.0 °C, 2.3 h): 15%
12 | CC(C)[C@@H]1OC(=O)C2(/C=C/c3ccc4ccc(nc4c3)[C@@H](C)NC(=O)[C@@H]3CCCN(N3)C(=O)[C@H](C)NC1=O)COC(C)(C)CO2 (single isomer, unassigned) [Compound 100] | < 100 | – | – | Replicon 1b % inhibition at 1 μM ([2]; 1b replicon, 1 μM compound): 100%; EC50 [2]: < 1000 nM
13 | CC(C)[C@@H]1OC(=O)[C@H](C)[C@H](O)CCCCc2cccc(c2)[C@@H](C)NC(=O)[C@@H]2CCCN(N2)C(=O)[C@H](C)NC1=O [Compound 10, (2R,5S,11S,14S,17R,18R)-18-Hydroxy-14-isopropyl-2,11,17-trimethyl-15-oxa-3,9,12,28-tetraaza-tricyclo[21.3.1.1*5,9*]octacosa-1(26),23(27),24-triene-4,10,13,16-tetraone] | < 100 | < 1000 | 92 | –
14 | CON=C1CCC2(/C=C/c3ccc4ccc(nc4c3)[C@@H](C)NC(=O)[C@@H]3CCCN(N3)C(=O)[C@H](C)NC(=O)[C@H](C(C)C)OC2=O)CC1 (stereo partly drawn) [Compound 83] | < 100 | < 1000 | 100 | –
15 | CC(C)[C@@H]1OC(=O)CCc2ccc(cc2)-c2cccc(c2)[C@@H](C)NC(=O)[C@@H]2CCCN(N2)C(=O)[C@H](C)NC1=O [Compound 6] | < 100 | < 1000 | 94 | –
16 | CC(C)[C@@H]1OC(=O)C2(/C=C/c3ccc4ccc(nc4c3)[C@@H](C)NC(=O)[C@@H]3CCCN(N3)C(=O)[C@H](C)NC1=O)CCN(S(C)(=O)=O)CC2 [Compound 85] | < 100 | < 1000 | 98 | –
17 | CC(C)[C@@H]1NCCC/C=C/c2cc3cc(ccc3cn2)[C@@H](C)OC(=O)[C@@H]2CCCN(N2)C(=O)[C@H](C)NC1=O [Compound 20] | 101 to 1000 | < 1000 | 88 | –
18 | CO[C@@H](C)[C@@H]1OC(=O)C(C)(C)/C=C/c2ccc3ccc(nc3c2)[C@@H](C)NC(=O)[C@@H]2CCCN(N2)C(=O)[C@H](C)NC1=O [Compound 54] | 101 to 1000 | < 1000 | 77 | –
19 | CCCC(=O)O[C@H]1CC[C@]2(/C=C/c3ccc4ccc(nc4c3)[C@@H](C)NC(=O)[C@@H]3CCCN(N3)C(=O)[C@H](C)NC(=O)[C@H](C(C)C)OC2=O)CC1 [Compound 82] | < 100 | < 1000 | 99 | –
20 | C[C@@H]1NC(=O)[C@H](C2CCC2)OC(=O)C(C)(C)/C=C/c2ccc3ccc(nc3c2)[C@@H](C)NC(=O)[C@@H]2CCCN(N2)C1=O [Compound 52] | < 100 | < 1000 | 100 | –
21 | CCC(=O)O[C@H]1CC[C@]2(/C=C/c3ccc4ccc(nc4c3)[C@@H](C)NC(=O)[C@@H]3CCCN(N3)C(=O)[C@H](C)NC(=O)[C@H](C(C)C)OC2=O)CC1 [Compound 111] | < 100 | < 1000 | 99 | –
22 | CC(C)[C@@H]1NCCCC=Cc2cc3cc(ccc3cn2)[C@@H](C)OC(=O)[C@@H]2CCCN(N2)C(=O)[C@H](C)NC1=O | – | – | – | ring closure, yield of all isomers (from C=CCCCN[C@H](C(=O)N[C@@H](C)C(=O)N1CCC[C@@H](C(=O)O[C@H](C)c2ccc3cnc(C=C)cc3c2)N1)C(C)C, rcm bond, Hoveyda-Grubbs 2nd generation catalyst, toluene, 2.97 mM, 110.0 °C, 1.25 h): 56%
23 | CC(C)[C@@H]1OC(=O)[C@H](C)[C@H](O[Si](C)(C)C(C)(C)C)CC/C=C/c2cccc(c2)[C@@H](C)NC(=O)[C@@H]2CCCN(N2)C(=O)[C@H](C)NC1=O | – | – | – | ring closure, isolated yield [4]: 16%; ring closure, yield of all isomers (from C=CCC[C@@H](O[Si](C)(C)C(C)(C)C)[C@@H](C)C(=O)O[C@H](C(=O)N[C@@H](C)C(=O)N1CCC[C@@H](C(=O)N[C@H](C)c2cccc(C=C)c2)N1)C(C)C, rcm bond, Hoveyda-Grubbs 2nd generation catalyst, 1,2-dichloroethane, 3.01 mM, 80.0 °C, 2.0 h, 2 steps): 16%
